In one experiment the test system is rabbits. As to the kind of experiment: Visual acuity by sweep visual evoked potential (swVEP) in conscious rabbits after transient IOP elevation. The conditions noted are these: 4.5 months after transient IOP elevation; 2.5 kg rabbits pre-treated with oral dose of 50 mg memantine; compared with 50 mg sugar placebo (reduction in acuity). The class given is in vivo, rabbit. How it is done:
This invention is especially useful in the use of memantine to normalize visual acuity deficits from outer retina (photoreceptor/RPE) injury.
(§1) Rabbits were anesthetized with isofluorane, and prepared for unilateral acute retinal ischemia by raising IOP in the OD eye by 120 mm Hg for 45 minutes. To accomplish this, a reservoir with PBS was suspended 65 inches above the eye and connected to a 30 gauge needle inserted through the cornea into the anterior chamber. A drop of topical anesthetic (proparacaine) was placed upon the cornea prior to needle insertion.
swVEP is an electrophysiological technique for assessing visual acuity in young children who can't read the Snellen eye charts. Pattern reversal images of increasing spatial frequency are projected onto the macula while simultaneously recording electrical activity (VEP) from the scalp. Images with lower spatial frequency generate large signals which get smaller as the spatial frequency increases, until signal=noise; this threshold is the visual acuity. […]
Vertical steady-state pattern-reversal sweep stimulus at spatial frequency range of 0.1 to 5 cycles per degree at a temporal frequency of 7.5 Hz were applied to the eye at mean luminance of 600 cd/m2 and contrast of 80%. […] Trials were averaged and the threshold (visual acuity) was determined by software or manual fitting at signal-to-noise ration no less than 2.5. […]

For a further experiment, the system named is retinal cells. Briefly: Histology (H&E) examination of eyes after transient IOP elevation. The format is in vivo, rabbit. The conditions noted are these: compared with the placebo group (patchy loss of predominantly outer retina cells). How it is done: as §1, with “This invention is especially useful in the use of memantine to normalize visual acuity deficits from outer retina (photoreceptor/RPE) injury. […] Retinal cell degeneration was less in the memantine group compared with the placebo group. Rabbits” for “Rabbits”

The structures appear in SMILES notation.

Regarding `CC12CC3CC(C)(C1)CC(N)(C3)C2` [memantine], the visual acuity entry in the experiment with rabbits is “normal visual acuities”. Further, in the experiment on retinal cells, the retinal cell degeneration entry is “less”.

(Values after US20070167527A1, “MEMANTINE FOR THE NORMALIZATION OF VISUAL ACUITY DEFICITS” (priority 2006, published 2007).)
